These results are taken from PubChem BioAssay AID652002 (Sanford-Burnham Center for Chemical Genomics, 2013).

The nature of assay [1]: TRAIL sensitizers in caspase-8 expressing neuroblastoma cells, dose response, NB7 cells plus caspase-8, luminescence, panel (AID 652002). The note with it: NB7 neuroblastoma +caspase-8, no TRAIL, compound-alone cytotoxicity counter-screen, luminescence viability, NB7+Caspase-8.
For assay [2], the target named is Tumor necrosis factor receptor superfamily member 10B (Homo sapiens) (UniProt O14763). Described as above. The note with it: NB7 neuroblastoma +caspase-8, TRAIL sensitization, luminescence viability; NB7+Caspase-8; with TRAIL, mean of runs.
Chain of Tumor necrosis factor receptor superfamily member 10B (Homo sapiens) (O14763 whole entry, looked up): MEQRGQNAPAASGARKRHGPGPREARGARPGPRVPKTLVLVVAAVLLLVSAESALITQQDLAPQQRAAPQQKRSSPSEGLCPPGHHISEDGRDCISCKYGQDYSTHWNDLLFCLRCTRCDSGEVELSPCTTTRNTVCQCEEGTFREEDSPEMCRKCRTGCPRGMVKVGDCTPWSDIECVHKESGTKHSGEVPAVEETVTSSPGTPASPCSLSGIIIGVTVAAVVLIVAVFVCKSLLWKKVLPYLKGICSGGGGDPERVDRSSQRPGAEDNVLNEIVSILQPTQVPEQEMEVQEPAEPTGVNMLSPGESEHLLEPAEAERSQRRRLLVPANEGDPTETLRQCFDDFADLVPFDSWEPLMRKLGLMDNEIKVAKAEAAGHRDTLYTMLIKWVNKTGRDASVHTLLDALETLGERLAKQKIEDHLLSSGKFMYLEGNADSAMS
The next assay addresses NB7+Caspase-8. The description is as above. To be noted: NB7 neuroblastoma +caspase-8, TRAIL sensitization, luminescence viability, with TRAIL.
Setting [3] is: run 1, single replicate panel EC50.
Where [4] appears, read: run 2, single replicate panel EC50.

Activity calls are given as the source filed them. No rule for the calls is given here.

For `CC(C)CCn1c(=O)c(C(=O)Nc2ccccc2S(N)(=O)=O)c(O)c2ccccc21`, the EC50 in assay [1] (mean of runs) is > 12.5 µM (inactive); in assay [1] (setting [3]), over 12.5 µM; in assay [1] (setting [4]) it was over 12.5 µM; in assay [2] it was > 12.5 µM (inactive); at NB7+Caspase-8 (setting [3]) it was over 12.5 µM; at NB7+Caspase-8 (setting [4]) it was over 12.5 µM.
Regarding `CC(C)C[C@H](NC(=O)c1nc[nH]c1C(=O)N[C@@H](CC(C)C)C(=O)OCc1ccccc1)C(=O)OCc1ccccc1`, the EC50 in assay [1] (mean of runs) is > 12.5 µM (inactive); in assay [1] (setting [3]), over 12.5 µM; in assay [1] (setting [4]), over 12.5 µM; in assay [2] it was > 12.5 µM (inactive); on NB7+Caspase-8 (setting [3]), over 12.5 µM; at NB7+Caspase-8 (setting [4]), over 12.5 µM.
Regarding `Cc1nn(-c2ccccc2)c2nc(N)c(C#N)c(-c3ccc(F)cc3)c12`, the EC50 entry in assay [1] (mean of runs) was “inactive”. Besides, the EC50 in assay [1] (setting [3]) is over 12.5 µM; in assay [1] (setting [4]) it was 11.5 µM; in assay [2], > 12.5 µM (inactive); on NB7+Caspase-8 (setting [3]), over 12.5 µM; on NB7+Caspase-8 (setting [4]), over 12.5 µM.
Regarding `COc1cccc(C(=O)Nc2ccc(C3CC3(Cl)Cl)cc2)c1` (stereo not given), the EC50 in assay [1] (mean of runs) is > 12.5 µM (inactive); in assay [1] (setting [3]) it was over 12.5 µM; in assay [1] (setting [4]) it was over 12.5 µM; in assay [2], > 12.5 µM (inactive); at NB7+Caspase-8 (setting [3]), over 12.5 µM; on NB7+Caspase-8 (setting [4]) it was over 12.5 µM.
Turning to `COc1ccc(NS(=O)(=O)c2cccc(C(=O)N/N=C/c3c(F)c(F)c(F)c(F)c3F)c2)cc1`, in assay [1] (mean of runs), the EC50 entry is “inactive”. In addition, the EC50 is over 12.5 µM in assay [1] (setting [3]); 11.4 µM in assay [1] (setting [4]); > 12.5 µM (inactive) in assay [2]; over 12.5 µM on NB7+Caspase-8 (setting [3]); over 12.5 µM at NB7+Caspase-8 (setting [4]).
For the compound `Cc1cc(NC(=O)C2CCCC2)nc2c1c(=O)oc1ccccc12`, the EC50 in assay [1] (mean of runs) was > 12.5 µM (inactive); in assay [1] (setting [3]) it was over 12.5 µM; in assay [1] (setting [4]) it was over 12.5 µM; in assay [2], > 12.5 µM (inactive); at NB7+Caspase-8 (setting [3]) it was over 12.5 µM; at NB7+Caspase-8 (setting [4]), over 12.5 µM.
As to `O=C(Nc1cnc2ccccn2c1=O)c1ccc(Cl)cc1Cl`, the EC50 in assay [1] (mean of runs) is > 12.5 µM (inactive); in assay [1] (setting [3]), over 12.5 µM; in assay [1] (setting [4]) it was over 12.5 µM; in assay [2], > 12.5 µM (inactive); at NB7+Caspase-8 (setting [3]) it was over 12.5 µM; at NB7+Caspase-8 (setting [4]) it was over 12.5 µM.
Regarding `CCOc1ccc2nc(NC(=O)c3cccc(-c4cc5ccccc5oc4=O)c3)sc2c1`, the EC50 is > 12.5 µM (inactive) in assay [1] (mean of runs); over 12.5 µM in assay [1] (setting [3]); over 12.5 µM in assay [1] (setting [4]); > 12.5 µM (inactive) in assay [2]; over 12.5 µM at NB7+Caspase-8 (setting [3]); over 12.5 µM at NB7+Caspase-8 (setting [4]).
`CCOC(=O)C(=C1Nc2ccccc2N1)n1c(-c2cccnc2)nc2ccccc21`: the EC50 result in assay [1] (mean of runs) and in assay [2] was “inactive” throughout. Besides, the EC50 in assay [1] (setting [3]) was over 12.5 µM; in assay [1] (setting [4]) it was 10.5 µM; at NB7+Caspase-8 (setting [3]) it was over 12.5 µM; on NB7+Caspase-8 (setting [4]), 9.47 µM.
As for `CC1(Cc2ccc(OC(F)(F)F)cc2)C(=O)Nc2ccc(S(=O)(=O)NC3CCCCC3)cc21` (stereo not given), the EC50 result in assay [1] (mean of runs) was “inactive”. The EC50 in assay [1] (setting [3]) was over 12.5 µM; in assay [1] (setting [4]), 12.3 µM; in assay [2], > 12.5 µM (inactive); at NB7+Caspase-8 (setting [3]), over 12.5 µM; on NB7+Caspase-8 (setting [4]) it was over 12.5 µM.
Consider `CCOc1ccc(NC(=O)c2ccco2)cc1`, for which the EC50 entry in assay [1] (mean of runs) and in assay [2] was “inactive” in each case. For the same compound, the half-maximal effective concentration (EC50) in assay [1] (setting [3]) was 6.87 µM; in assay [1] (setting [4]) it was 10.7 µM; at NB7+Caspase-8 (setting [3]), over 12.5 µM; at NB7+Caspase-8 (setting [4]), 6.9 µM.
Consider `Cc1ccn2cc(C(=O)Nc3ccc4c(c3)OCCO4)nc2c1`, for which the EC50 result in assay [1] (mean of runs) and in assay [2] was “inactive” each time. In addition, the 50% effective concentration (EC50) is 7.08 µM in assay [1] (setting [3]), 8.4 µM in assay [1] (setting [4]), over 12.5 µM at NB7+Caspase-8 (setting [3]) and 4.29 µM on NB7+Caspase-8 (setting [4]).
For `O=C(NC(=S)Nc1nc2c(s1)CCCC2)c1ccccc1`, the EC50 in assay [1] (mean of runs) was > 12.5 µM (inactive); in assay [1] (setting [3]), over 12.5 µM; in assay [1] (setting [4]) it was over 12.5 µM; on NB7+Caspase-8 (setting [3]), 7.43 µM; at NB7+Caspase-8 (setting [4]), over 12.5 µM. Further, the EC50 result in assay [2] was “inactive”.
For `O=C1CCCCC1Sc1nnc(-c2ccc3c(c2)OCO3)o1` (stereo not given), the EC50 entry in assay [1] (mean of runs) is “inactive”. Further, the EC50 in assay [1] (setting [3]) was over 12.5 µM; in assay [1] (setting [4]), 11 µM; in assay [2], > 12.5 µM (inactive); at NB7+Caspase-8 (setting [3]), over 12.5 µM; on NB7+Caspase-8 (setting [4]), over 12.5 µM.
Turning to `O=C(c1cnc(Cl)c(Cl)c1)N1CCN(S(=O)(=O)c2ccc3ccccc3c2)CC1`, the EC50 is > 12.5 µM (inactive) in assay [1] (mean of runs); over 12.5 µM in assay [1] (setting [3]); over 12.5 µM in assay [1] (setting [4]); > 12.5 µM (inactive) in assay [2]; over 12.5 µM on NB7+Caspase-8 (setting [3]); over 12.5 µM on NB7+Caspase-8 (setting [4]).
